Reference: patent US20240327381A1, “Compounds and Compositions for Selective Degradation of Engineered Proteins” (Celgene Corporation, priority 2023, published 2024)

What was measured:
[1] = biological target: T1, IKZF1 ZNF2_ZNF3 Q1F degron-tagged CD19 CAR (Homo sapiens, UniProt Q13422, Q146F); assay: Degradation of Q1F degron-tagged CD19 CAR in Jurkat cells (flow cytometry of CAR levels); format: cell-based; details: for DC50: Jurkat cells expressing CD19 CAR tagged with IKZF1 ZNF2_ZNF3 Q1F, 18 hours at 37° C., CAR levels normalized to untreated cells, read-out: Q1F Jurkat IC50; for Dmax: Ymax is the % protein degraded, Jurkat cells expressing Q1F degron-tagged CD19 CAR, 18 hours, read-out: Q1F Jurkat-YMax
T1 construct: ZNF2_ZNF3 Q1F degron (GERPFFCNQCGASFTQKGNLLRHIKLHSGEKPFKCHLCNYACRRRDALTGHLRTHS); fused on or other part: anti-CD19 scFv, CD28 transmembrane domain, 4-1BB costimulatory domain, CD3 zeta signaling domain (the CAR that carries the degron), and Nluc
T1 sequence (Q13422 whole entry Q146F, the tested form may be a part): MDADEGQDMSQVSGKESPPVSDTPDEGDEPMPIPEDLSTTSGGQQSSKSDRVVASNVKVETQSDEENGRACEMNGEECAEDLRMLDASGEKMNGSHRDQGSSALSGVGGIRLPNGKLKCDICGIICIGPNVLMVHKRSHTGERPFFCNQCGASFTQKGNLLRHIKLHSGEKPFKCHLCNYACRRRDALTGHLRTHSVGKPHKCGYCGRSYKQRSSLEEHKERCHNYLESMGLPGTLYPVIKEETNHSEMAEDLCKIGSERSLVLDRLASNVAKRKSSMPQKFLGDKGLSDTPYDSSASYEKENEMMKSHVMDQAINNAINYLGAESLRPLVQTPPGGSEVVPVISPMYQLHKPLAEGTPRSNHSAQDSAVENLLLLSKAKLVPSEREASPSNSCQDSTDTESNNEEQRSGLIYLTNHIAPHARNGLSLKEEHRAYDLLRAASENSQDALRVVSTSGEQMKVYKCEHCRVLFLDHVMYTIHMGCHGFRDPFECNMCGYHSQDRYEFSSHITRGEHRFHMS
In short: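 Jurkat cells were lentivirally transduced with an anti-CD19 scFv/CD28 TM/4-1BB/CD3ζ CAR tagged with an IKZF1 ZNF2_ZNF3 Q1F degron–Nluc, then treated with compound titrations for 18 h at 37 °C. CAR surface levels were stained (20 min, 4 °C), read by flow cytometry and normalised to untreated cells. EC50 came from a four-parameter logistic fit; Ymin is the minimum % CAR remaining.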

Helios = biological target: T2, Helios (Homo sapiens, UniProt Q9UKS7); assay: Helios degradation in Jurkat/Helios/HiBit cells (Nano-Glo luminescence); format: cell-based; details: 18 hr, read-out: Helios Jurkat Hibit IC50
T2 construct: endogenous in cells; host or cells: Jurkat cells, CRISPR/Cas9 knock-in of HiBit at the IKZF2 locus
T2 sequence (Q9UKS7 whole entry): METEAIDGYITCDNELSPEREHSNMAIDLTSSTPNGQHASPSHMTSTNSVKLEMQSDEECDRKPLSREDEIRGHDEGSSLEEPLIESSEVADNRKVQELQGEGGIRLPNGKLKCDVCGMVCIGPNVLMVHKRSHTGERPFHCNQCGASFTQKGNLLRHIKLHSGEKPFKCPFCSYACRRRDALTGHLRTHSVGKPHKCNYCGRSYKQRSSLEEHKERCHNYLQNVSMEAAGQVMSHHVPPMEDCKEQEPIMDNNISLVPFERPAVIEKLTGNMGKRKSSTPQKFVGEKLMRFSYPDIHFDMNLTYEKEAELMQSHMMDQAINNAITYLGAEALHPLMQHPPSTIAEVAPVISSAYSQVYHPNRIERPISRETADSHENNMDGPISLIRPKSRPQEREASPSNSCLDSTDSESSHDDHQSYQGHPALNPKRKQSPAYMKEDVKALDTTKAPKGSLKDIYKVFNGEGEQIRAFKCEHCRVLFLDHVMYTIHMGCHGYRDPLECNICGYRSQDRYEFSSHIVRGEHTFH
T2 sequence (Q96SW2 whole entry, further chain): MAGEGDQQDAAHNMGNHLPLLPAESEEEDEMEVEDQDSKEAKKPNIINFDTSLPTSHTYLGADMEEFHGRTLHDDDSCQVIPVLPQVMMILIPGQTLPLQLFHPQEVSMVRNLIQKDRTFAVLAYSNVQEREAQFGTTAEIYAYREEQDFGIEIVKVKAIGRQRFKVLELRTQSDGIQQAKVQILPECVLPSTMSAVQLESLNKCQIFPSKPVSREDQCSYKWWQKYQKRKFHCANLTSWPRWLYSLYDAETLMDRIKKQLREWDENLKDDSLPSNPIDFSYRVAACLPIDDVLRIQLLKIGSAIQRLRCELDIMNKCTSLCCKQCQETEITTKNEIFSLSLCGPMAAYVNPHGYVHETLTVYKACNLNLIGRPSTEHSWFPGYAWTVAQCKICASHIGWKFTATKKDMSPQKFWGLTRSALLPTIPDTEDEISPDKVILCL
T2 sequence (Q16531 whole entry partner): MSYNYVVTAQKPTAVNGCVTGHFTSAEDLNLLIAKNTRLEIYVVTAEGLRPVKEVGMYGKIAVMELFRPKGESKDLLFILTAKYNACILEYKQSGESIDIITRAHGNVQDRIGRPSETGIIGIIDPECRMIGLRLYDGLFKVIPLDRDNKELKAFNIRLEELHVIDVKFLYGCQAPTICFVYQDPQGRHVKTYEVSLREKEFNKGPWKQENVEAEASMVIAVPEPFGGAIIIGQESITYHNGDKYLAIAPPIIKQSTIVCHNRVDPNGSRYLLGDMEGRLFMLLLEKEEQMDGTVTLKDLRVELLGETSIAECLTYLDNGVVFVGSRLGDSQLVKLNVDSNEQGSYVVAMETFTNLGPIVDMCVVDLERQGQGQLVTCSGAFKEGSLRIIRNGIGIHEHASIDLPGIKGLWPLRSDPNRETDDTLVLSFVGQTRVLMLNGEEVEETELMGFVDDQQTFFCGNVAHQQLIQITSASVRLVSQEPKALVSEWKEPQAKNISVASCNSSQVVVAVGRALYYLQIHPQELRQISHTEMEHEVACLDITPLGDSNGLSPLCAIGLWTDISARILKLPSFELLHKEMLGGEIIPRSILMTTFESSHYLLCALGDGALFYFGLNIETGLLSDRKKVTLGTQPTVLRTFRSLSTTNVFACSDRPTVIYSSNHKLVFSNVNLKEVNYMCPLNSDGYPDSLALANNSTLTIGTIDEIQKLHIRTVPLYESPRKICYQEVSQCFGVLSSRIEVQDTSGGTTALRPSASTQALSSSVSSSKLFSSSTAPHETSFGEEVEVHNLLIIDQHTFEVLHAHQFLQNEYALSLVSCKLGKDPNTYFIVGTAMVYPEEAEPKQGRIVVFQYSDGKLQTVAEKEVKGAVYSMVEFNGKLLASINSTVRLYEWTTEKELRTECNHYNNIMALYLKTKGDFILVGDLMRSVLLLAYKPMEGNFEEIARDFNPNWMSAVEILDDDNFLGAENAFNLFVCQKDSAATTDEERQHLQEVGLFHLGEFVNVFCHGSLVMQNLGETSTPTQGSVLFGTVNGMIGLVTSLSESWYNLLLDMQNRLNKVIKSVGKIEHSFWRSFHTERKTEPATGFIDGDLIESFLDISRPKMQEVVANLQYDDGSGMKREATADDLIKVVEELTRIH
In short: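 Jurkat cells carrying CRISPR-knocked-in C-terminal HiBit-tagged endogenous IKZF2 were treated with compound in DMEM/10% FCS (10,000 cells/well) for 18 h at 37 °C. HiBit signal was read by Nano-Glo luminescence after 30 min at RT. EC50 for degradation came from a four-parameter logistic fit, with Ymax as % protein degraded.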

SMILES | DC50 [1] | Dmax [1] | DC50 (Helios)
Cn1cnc2ccc(CN3CCC(c4c(F)cc5c(c4F)CN(C4CCC(=O)NC4=O)C5=O)CC3)cc21 (stereo not drawn) [Compound 106, 3-(4,6-difluoro-5-(1-((1-methyl-1H-benzo[d]imidazol-6-yl)methyl)piperidin-4-yl)-1-oxoisoindolin-2-yl)piperidine-2,6-dione] | 0.698 nM | 91.8% | ≥ 10000 nM
O=C1CCC(N2Cc3c(cc(F)c(C4CCN(Cc5cccnc5)CC4)c3F)C2=O)C(=O)N1 (stereo not drawn) [Compound 107, 3-(4,6-difluoro-1-oxo-5-(1-(pyridin-3-ylmethyl)piperidin-4-yl)isoindolin-2-yl)piperidine-2,6-dione] | 2.1 nM | 89.7% | ≥ 10000 nM
CN(C)CCCOc1ccc(CN2CCC(c3c(F)cc4c(c3F)CN(C3CCC(=O)NC3=O)C4=O)CC2)cc1 (stereo not drawn) [Compound 108, 3-(5-(1-(4-(3-(dimethylamino)propoxy)benzyl)piperidin-4-yl)-4,6-difluoro-1-oxoisoindolin-2-yl)piperidine-2,6-dione] | 3.66 nM | 83.1% | ≥ 10000 nM
CS(=O)(=O)Nc1cccc(CN2CCC(c3c(F)cc4c(c3F)CN(C3CCC(=O)NC3=O)C4=O)CC2)c1 (stereo not drawn) [Compound 109, N-(3-((4-(2-(2,6-dioxopiperidin-3-yl)-4,6-difluoro-1-oxoisoindolin-5-yl)piperidin-1-yl)methyl)phenyl) methanesulfonamide] | 2.28 nM | 91.5% | ≥ 10000 nM
CN(C)c1ccc(CN2CCC(c3c(F)cc4c(c3F)CN(C3CCC(=O)NC3=O)C4=O)CC2)cc1 (stereo not drawn) [Compound 110, 3-(5-(1-(4-(dimethylamino)benzyl)piperidin-4-yl)-4,6-difluoro-1-oxoisoindolin-2-yl)piperidine-2,6-dione] | 1.12 nM | 90.5% | ≥ 10000 nM
Cc1ccc(CCN2CCC(c3c(F)cc4c(c3F)CN(C3CCC(=O)NC3=O)C4=O)CC2)cc1 (stereo not drawn) [Compound 111, 3-(4,6-difluoro-5-(1-(4-methylphenethyl)piperidin-4-yl)-1-oxoisoindolin-2-yl)piperidine-2,6-dione] | 7.45 nM | 82.7% | ≥ 10000 nM
O=C1CCC(N2Cc3c(cc(F)c(C4CCN(CC5CCCC5)CC4)c3F)C2=O)C(=O)N1 (stereo not drawn) [Compound 112, 3-(5-(1-(cyclopentylmethyl)piperidin-4-yl)-4,6-difluoro-1-oxoisoindolin-2-yl)piperidine-2,6-dione] | 3.23 nM | 84.6% | ≥ 10000 nM
CC(C)CCN1CCC(c2c(F)cc3c(c2F)CN(C2CCC(=O)NC2=O)C3=O)CC1 (stereo not drawn) [Compound 113, 3-(4,6-difluoro-5-(1-isopentylpiperidin-4-yl)-1-oxoisoindolin-2-yl)piperidine-2,6-dione] | 2.73 nM | 82.5% | ≥ 10000 nM
O=C1CCC(N2Cc3c(cc(F)c(C4CCN(CCC(F)(F)F)CC4)c3F)C2=O)C(=O)N1 (stereo not drawn) [Compound 114, 3-(4,6-difluoro-1-oxo-5-(1-(3,3,3-trifluoropropyl)piperidin-4-yl)isoindolin-2-yl)piperidine-2,6-dione] | 10.8 nM | 74.8% | ≥ 10000 nM
CCCCN1CCC(c2c(F)cc3c(c2F)CN(C2CCC(=O)NC2=O)C3=O)CC1 (stereo not drawn) [Compound 115, 3-(5-(1-butylpiperidin-4-yl)-4,6-difluoro-1-oxoisoindolin-2-yl)piperidine-2,6-dione] | 6.66 nM | 79.7% | ≥ 10000 nM
O=C1CCC(N2Cc3c(cc(F)c(C4CCN(Cc5cnc6ccccc6n5)CC4)c3F)C2=O)C(=O)N1 (stereo not drawn) [Compound 116, 3-(4,6-difluoro-1-oxo-5-(1-(quinoxalin-2-ylmethyl)piperidin-4-yl)isoindolin-2-yl)piperidine-2,6-dione] | 3.19 nM | 85.5% | ≥ 10000 nM
O=C1CCC(N2Cc3c(cc(F)c(C4CCN(Cc5ccncc5)CC4)c3F)C2=O)C(=O)N1 (stereo not drawn) [Compound 117, 3-(4,6-difluoro-1-oxo-5-(1-(pyridin-4-ylmethyl)piperidin-4-yl)isoindolin-2-yl)piperidine-2,6-dione] | 6.26 nM | 86.1% | ≥ 10000 nM
O=C1CCC(N2Cc3c(cc(F)c(C4CCN(CCCOc5ccccc5)CC4)c3F)C2=O)C(=O)N1 (stereo not drawn) [Compound 118, 3-(4,6-difluoro-1-oxo-5-(1-(3-phenoxypropyl)piperidin-4-yl)isoindolin-2-yl)piperidine-2,6-dione] | 2.86 nM | 83% | ≥ 10000 nM
O=C1CCC(N2Cc3c(cc(F)c(C4CCN(Cc5nnc(-c6ccccc6)o5)CC4)c3F)C2=O)C(=O)N1 (stereo not drawn) [Compound 120, 3-(4,6-difluoro-1-oxo-5-(1-((5-phenyl-1,3,4-oxadiazol-2-yl)methyl)piperidin-4-yl)isoindolin-2-yl)piperidine-2,6-dione] | 165 nM | 65.8% | ≥ 10000 nM
CS(=O)(=O)CCCN1CCC(c2c(F)cc3c(c2F)CN(C2CCC(=O)NC2=O)C3=O)CC1 (stereo not drawn) [Compound 121, 3-(4,6-difluoro-5-(1-(3-(methylsulfonyl)propyl)piperidin-4-yl)-1-oxoisoindolin-2-yl)piperidine-2,6-dione] | 20.4 nM | 76.7% | ≥ 10000 nM
CNC(=O)CN1CCC(c2c(F)cc3c(c2F)CN(C2CCC(=O)NC2=O)C3=O)CC1 (stereo not drawn) [Compound 122, 2-(4-(2-(2,6-dioxopiperidin-3-yl)-4,6-difluoro-1-oxoisoindolin-5-yl)piperidin-1-yl)-N-methylacetamide] | 65.1 nM | 74.2% | ≥ 10000 nM
O=C1CCC(N2Cc3c(cc(F)c(C4CCN(CCO)CC4)c3F)C2=O)C(=O)N1 (stereo not drawn) [Compound 123, 3-(4,6-difluoro-5-(1-(2-hydroxyethyl)piperidin-4-yl)-1-oxoisoindolin-2-yl)piperidine-2,6-dione] | 21.3 nM | 74.5% | ≥ 10000 nM
COCCN1CCC(c2c(F)cc3c(c2F)CN(C2CCC(=O)NC2=O)C3=O)CC1 (stereo not drawn) [Compound 124, 3-(4,6-difluoro-5-(1-(2-methoxyethyl)piperidin-4-yl)-1-oxoisoindolin-2-yl)piperidine-2,6-dione] | 11 nM | 76.7% | ≥ 10000 nM
CN1CCC(N2CCC(c3c(F)cc4c(c3F)CN(C3CCC(=O)NC3=O)C4=O)CC2)CC1 (stereo not drawn) [Compound 125, 3-(4,6-difluoro-5-(1′-methyl-[1,4′-bipiperidin]-4-yl)-1-oxoisoindolin-2-yl)piperidine-2,6-dione] | 22.1 nM | 80.1% | ≥ 10000 nM
O=C1CC[C@H](N2Cc3c(cc(F)c(C4CC5CCC(C4)N5Cc4ccc5ncsc5c4)c3F)C2=O)C(=O)N1 (stereo partly drawn) [Compound 126, (3S)-3-(5-(8-(benzo[d]thiazol-6-ylmethyl)-8-azabicyclo[3.2.1]octan-3-yl)-4,6-difluoro-1-oxoisoindolin-2-yl)piperidine-2,6-dione] | 0.427 nM | 92.2% | ≥ 10000 nM
O=C1CC[C@@H](N2Cc3c(cc(F)c(C4CC5CCC(C4)N5Cc4ccc5ncsc5c4)c3F)C2=O)C(=O)N1 (stereo partly drawn) [Compound 127, (3R)-3-(5-(8-(benzo[d]thiazol-6-ylmethyl)-8-azabicyclo[3.2.1]octan-3-yl)-4,6-difluoro-1-oxoisoindolin-2-yl)piperidine-2,6-dione] | 5.94 nM | 91.2% | ≥ 10000 nM
